Reference: patent US12448388B2, “PRMT5 inhibitors and uses thereof” (Gilead Sciences, Inc., priority 2023, dated 2025)

The molecules below were run on HCT116 MTAP-deleted cell lines (assay: Cell viability assay (CellTiter-Glo, 7 days), HCT116 MTAP-deleted). Conditions: Homo sapiens, HCT-116; cell viability assay, HCT116 MTAP-deleted; class symbols; read-out: CC50.
Format: cell-based
Summary of the method: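 Each PRMT5 inhibitor was tested as a dose response alongside tool compounds on the same plate. Incubation ran 7 days at 37 °C under 5% CO2, after which CellTiter-Glo luminescence was recorded and CC50 calculated.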

SMILES	CC50 [nM]
Cc1ncn2c1c(N)nc1cc(F)c(C(=O)N3CCC[C@@H]4Oc5cc(F)ccc5[C@@H]43)cc12 [Fg-26, (4-amino-7-fluoro-3-methylimidazo[1,5-a]quinoxalin-8-yl)((4aS,9bS)-7-fluoro-3,4,4a,9b-tetrahydrobenzofuro[3,2-b]pyridin-1(2H)-yl)methanone]	< 100
Cc1ncn2c1c(N)nc1cnc(C(=O)N3CC(C)(C)CC4Oc5cc(OC(F)(F)F)ccc5C43)cc12 (stereo not shown) [Fg-27, (4-amino-3-methylimidazo[1,5-a]pyrido[3,4-e]pyrazin-8-yl)(3,3-dimethyl-7-(trifluoromethoxy)-3,4,4a,9b-tetrahydrobenzofuro[3,2-b]pyridin-1(2H)-yl)methanone]	100 to 1000
Nc1nc2cnc(C(=O)N3CCC[C@@H]4Oc5cc(Cl)ccc5[C@@H]43)cc2n2cncc12 [Fg-28, (4-aminoimidazo[1,5-a]pyrido[3,4-e]pyrazin-8-yl)((4aS,9bS)-7-chloro-3,4,4a,9b-tetrahydrobenzofuro[3,2-b]pyridin-1(2H)-yl)methanone]	< 100
Cc1ncn2c1c(N)nc1cnc(C(=O)N3CCC[C@@H]4Oc5cc(OC(F)(F)F)ccc5[C@@H]43)cc12 [Fg-30, (4-amino-3-methylimidazo[1,5-a]pyrido[3,4-e]pyrazin-8-yl)((4aS,9bS)-7-(trifluoromethoxy)-3,4,4a,9b-tetrahydrobenzofuro[3,2-b]pyridin-1(2H)-yl)methanone]	< 100
Cc1ncn2c1c(N)nc1cnc(C(=O)N3CCC[C@@H]4Oc5cc(OC(F)(F)F)c(F)cc5[C@@H]43)cc12 [Fg-32, (4-amino-3-methylimidazo[1,5-a]pyrido[3,4-e]pyrazin-8-yl)((4aS,9bS)-8-fluoro-7-(trifluoromethoxy)-3,4,4a,9b-tetrahydrobenzofuro[3,2-b]pyridin-1(2H)-yl)methanone]	< 100
Cc1ncn2c1c(N)nc1cc(F)c(C(=O)N3CC[C@H]4C[C@@H]3c3ccc(C(F)(F)F)nc3O4)cc12 [Fg-33, (4-amino-7-fluoro-3-methylimidazo[1,5-a]quinoxalin-8-yl)((2S,6R)-9-(trifluoromethyl)-3,4-dihydro-2H-2,6-methanopyrido[2,3-b][1,5]oxazocin-5(6H)-yl)methanone]	< 100
Cc1ncn2c1c(N)nc1cc(F)c(C(=O)N3C[C@@H](C)O[C@@H]4Cc5cc(C(F)(F)F)ccc5[C@@H]43)cc12 [Fg-34, (4-amino-7-fluoro-3-methylimidazo[1,5-a]quinoxalin-8-yl)((2R,4aS,9aR)-2-methyl-7-(trifluoromethyl)-2,3,9,9a-tetrahydroindeno[2,1-b][1,4]oxazin-4(4aH)-yl)methanone]	< 100
Cc1ncn2c1c(N)nc1cnc(C(=O)N3CC4(CC4)C[C@@H]4Oc5cc(C(F)(F)F)ccc5[C@@H]43)cc12 [Fg-36, (4-amino-3-methylimidazo[1,5-a]pyrido[3,4-e]pyrazin-8-yl)((4aS,9bS)-7-(trifluoromethyl)-4a,9b-dihydro-2H-spiro[benzofuro[3,2-b]pyridine-3,1′-cyclopropan]-1(4H)-yl)methanone]	< 100
Cc1ncn2c1c(N)nc1cnc(C(=O)N3C[C@@H](C)C[C@@H]4Oc5cc(C(F)(F)F)ccc5[C@@H]43)cc12 [Fg-37, (4-amino-3-methylimidazo[1,5-a]pyrido[3,4-e]pyrazin-8-yl)((3S,4aS,9bS)-3-methyl-7-(trifluoromethyl)-3,4,4a,9b-tetrahydrobenzofuro[3,2-b]pyridin-1(2H)-yl)methanone]	< 100
Cc1ncn2c1c(N)nc1cnc(C(=O)N3C[C@H](C)C[C@@H]4Oc5cc(C(F)(F)F)c(F)cc5[C@@H]43)cc12 [Fg-39, (4-amino-3-methylimidazo[1,5-a]pyrido[3,4-e]pyrazin-8-yl)((3R,4aS,9bS)-8-fluoro-3-methyl-7-(trifluoromethyl)-3,4,4a,9b-tetrahydrobenzofuro[3,2-b]pyridin-1(2H)-yl)methanone]	< 100
Cc1ncc2c(N)nc3cnc(C(=O)N4CCC[C@@H]5Oc6cc(S(F)(F)(F)(F)F)ccc6[C@@H]54)cc3n12 [Fg-43, (4-amino-1-methylimidazo[1,5-a]pyrido[3,4-e]pyrazin-8-yl)((4aS,9bS)-7-(pentafluoro-16-sulfaneyl)-3,4,4a,9b-tetrahydrobenzofuro[3,2-b]pyridin-1(2H)-yl)methanone]	< 100
Cc1ncc2c(N)nc3cnc(C(=O)N4C[C@@H](F)C[C@@H]5Oc6cc(OC(F)(F)F)ccc6[C@@H]54)cc3n12 [Fg-45, (4-amino-1-methylimidazo[1,5-a]pyrido[3,4-e]pyrazin-8-yl)((3S,4aS,9bS)-3-fluoro-7-(trifluoromethoxy)-3,4,4a,9b-tetrahydrobenzofuro[3,2-b]pyridin-1(2H)-yl)methanone]	< 100
Cc1ncn2c1c(N)nc1ccc(C(=O)N3C[C@@H](F)C[C@@H]4Oc5cc(OC(F)(F)F)ccc5[C@@H]43)cc12 [Fg-47, (4-amino-3-methylimidazo[1,5-a]quinoxalin-8-yl)((3S,4aS,9bS)-3-fluoro-7-(trifluoromethoxy)-3,4,4a,9b-tetrahydrobenzofuro[3,2-b]pyridin-1(2H)-yl)methanone]	< 100
CCc1cc2nc(N)c3cncn3c2cc1C(=O)N(C)[C@@H]1COc2cc(C(F)(F)F)ccc21 [Fg-52, (S)-4-amino-7-ethyl-N-methyl-N-(6-(trifluoromethyl)-2,3-dihydrobenzofuran-3-yl)imidazo[1,5-a]quinoxaline-8-carboxamide]	< 100
Nc1nc2cc(C3CC3)c(C(=O)N3CCC[C@@H]4Oc5cc(C(F)(F)F)ccc5[C@@H]43)cc2n2cncc12 [Fg-56, (4-amino-7-cyclopropylimidazo[1,5-a]quinoxalin-8-yl)((4aS,9bS)-7-(trifluoromethyl)-3,4,4a,9b-tetrahydrobenzofuro[3,2-b]pyridin-1(2H)-yl)methanone]	100 to 1000
Nc1nc2cnc(C(=O)N3CC4(CC4)C[C@@H]4Oc5cc(OC(F)(F)F)ccc5[C@@H]43)cc2n2cncc12 [Fg-61, (4-aminoimidazo[1,5-a]pyrido[3,4-e]pyrazin-8-yl)((4aS,9bS)-7-(trifluoromethoxy)-4a,9b-dihydro-2H-spiro[benzofuro[3,2-b]pyridine-3,1′-cyclopropan]-1(4H)-yl)methanone]	< 100
Cc1ncn2c1c(N)nc1cnc(C(=O)N3CCC[C@@H]4Oc5c(ccc(OC(F)(F)F)c5F)[C@@H]43)cc12 [Fg-62, (4-amino-3-methylimidazo[1,5-a]pyrido[3,4-e]pyrazin-8-yl)((4aS,9bS)-6-fluoro-7-(trifluoromethoxy)-3,4,4a,9b-tetrahydrobenzofuro[3,2-b]pyridin-1(2H)-yl)methanone]	< 100
Cc1ncn2c1c(N)nc1cnc(C(=O)N3C[C@H](C)C[C@@H]4Oc5c(ccc(C(F)(F)F)c5F)[C@@H]43)cc12 [Fg-63, (4-amino-3-methylimidazo[1,5-a]pyrido[3,4-e]pyrazin-8-yl)((3R,4aS,9bS)-6-fluoro-3-methyl-7-(trifluoromethyl)-3,4,4a,9b-tetrahydrobenzofuro[3,2-b]pyridin-1(2H)-yl)methanone]	< 100
Cc1ncn2c1c(N)nc1cnc(C(=O)N3CC[C@H]4C[C@@H]3c3ccc(C(F)(F)F)cc3O4)cc12 [Fg-64, (4-amino-3-methylimidazo[1,5-a]pyrido[3,4-e]pyrazin-8-yl)((2S,6R)-9-(trifluoromethyl)-3,4-dihydro-2H-2,6-methanobenzo[b][1,5]oxazocin-5(6H)-yl)methanone]	< 100

Same assay, conditions: Homo sapiens, HCT-116; cell viability, HCT116 MTAP-deleted; class symbols; read-out: CC50

SMILES	CC50 [nM]
Nc1nc2cc(F)c(C(=O)N3CCO[C@@H]4Cc5cc(Br)ccc5[C@@H]43)cc2n2cncc12 (racemic) [Ff-28, Racemic(4-amino-7-fluoroimidazo[1,5-a]quinoxalin-8-yl)((4aS,9aR)-7-bromo-2,3,9,9a-tetrahydroindeno[2,1-b][1,4]oxazin-4(4aH)-yl)methanone]	< 100

The molecules below were run on Symmetric Di-methyl Arginine (SDMA) signal (PRMT5 inhibition) in HCT116 MTAP-deleted cells (assay: Symmetric di-methyl arginine image-based high content screen assay (SDMA assay), HCT116 MTAP-deleted). Conditions: HCT116 WT versus HCT116 MTAP-deleted.
Format: cell-based
Experimental: Symmetric di-methyl arginine image-based high content screen assay (SDMA assay) was performed in HCT116 WT and HCT116 MTAP-deleted cell lines to measure Symmetric Di-methyl Arginine (SDMA) signal reduction after selective PRMT5 inhibition in the MTAP-deleted cells. Control compounds were analyzed in parallel each time for quality control.
Briefly, the same compound plates were generated as mentioned in the previous section of Cell viability assay on Day −1. On Day 0, 800 HCT WT or HCT116 MTAP-deleted cell were seeded in compound-containing 384 well plates (50 μl per well) in RPMI 1640 media supplemented with 10% heat inactivated fetal bovine serum, Glutamax and penicillin streptomycin using EL460 liquid dispenser 5 μl cassette (BioTek, part no. 7170011). After equilibrating the plate at room temperature, the cells were incubated for 3 days inside the sealed incubator set at 37° C. with 90% humidity and 5% C02.
On Day 3, the cells were fixed by adding 45 μl of 8% neutralized formalin solution to each well using EL460 liquid dispenser 5 μl cassette and the cells were incubated for 30 minutes at room temperature. The formalin solution was washed off with […] phosphate buffered saline (dPBS), the 0.1% Triton X-100 solution in dPBS was used to permeabilize the cells for 15 minutes at room temperature. The triton solution was aspirated, 50 μl of Odyssey Blocking buffer +0.05% Tween20 was added and the plate was incubated at room temperature for 30 minutes.
The blocking solution was removed, a 20 μl of SDMA antibody (Cell Signaling Technology, Cat no. 13222) diluted 1:500 in Odyssey Blocking buffer +0.05% Tween20 was added and the plate was incubated at 4° C. overnight. Next day, the primary SDME antibody solution was washed from each well three times with 0.05% Tween20 in dPBS (PBST).
A 30 μl of the secondary antibody, a Goat anti-Rabbit Alexa Fluor Plus 488 (Invitrogen, Cat no. PIA32731) was diluted 1:500 in Odyssey Blocking buffer +0.05% Tween20 and the plate was incubated for 1.5 hours in dark at room temperature. The secondary antibody solution was removed, 30 μl of 5 mg/ml DAPI solution diluted 1:2000 in dPBS was added and the plate was incubated for 30 minutes in dark at room temperature. The DAPI solution was aspirated and the wells were washed six times with dPBS.
The SDMA signal and DAPI signal per cell were counted using a Cellomics CX7 LZR instrument reading under 488 and 405 nm laser, respectively. The SDMA signal was quantified by mean average intensity per cell from Alexa Fluor Plus 488 after the cell was defined with DAPI. The EC50 values for each compound after 3 days of treatment were calculated using 4 parameter non-linear logistical curve fit.
For the SDMA assay i.e. EC50 shown in Table 3A: A: EC50≤1 nM, B: 1 nM<EC50≤5 nM, C: EC50>5 nM.

EC50 selectivity	SMILES
256	Nc1nc2cc(F)c(C(=O)N3CCO[C@@H]4Cc5cc(Br)ccc5[C@@H]43)cc2n2cncc12 (racemic) [Ff-28, Racemic(4-amino-7-fluoroimidazo[1,5-a]quinoxalin-8-yl)((4aS,9aR)-7-bromo-2,3,9,9a-tetrahydroindeno[2,1-b][1,4]oxazin-4(4aH)-yl)methanone]

Same assay, conditions: Homo sapiens, HCT-116, HCT116 MTAP-deleted, class symbols

EC50 [nM]	SMILES
1 to 5	Nc1nc2cc(F)c(C(=O)N3CCO[C@@H]4Cc5cc(Br)ccc5[C@@H]43)cc2n2cncc12 (racemic) [Ff-28, Racemic(4-amino-7-fluoroimidazo[1,5-a]quinoxalin-8-yl)((4aS,9aR)-7-bromo-2,3,9,9a-tetrahydroindeno[2,1-b][1,4]oxazin-4(4aH)-yl)methanone]
